Paper PMC12518639, “Apomorphine is a novel necroptosis inhibitor targeting mixed lineage kinase domain-like protein oligomerization” (Cell Death Discovery, 2025)

Columns and labels:
Nt-hMLKL^F148A = target: T1, Nt-hMLKL^F148A (Homo sapiens, UniProt Q8NB16, F148A); assay: SPR binding to Nt-hMLKL F148A mutant; conditions: versus Nt-hMLKL
T1 construct: an N-terminal domain (Nt-hMLKL, amino acids 2–154, MW: 23 kDa) involved in oligomerization; His (N); made in house; host or cells: E. coli BL21
Description: The hMLKL plasmid (RC213152, OriGene, Rockville, MD, USA), and recombinant Wt-hMLKL (ab241453, Abcam) and Wt-mMLKL (MBS1379843, MyBioSource, San Diego, CA, USA) proteins were purchased. Nt-hMLKL (2–154), Nt-mMLKL (1–180), and Ct-hMLKL (183–471) were generated using the pBT7-N-His vector. Nt-hMLKL^C86A, Nt-hMLKL^F148A, -hMLKL^C86A/L89A/D94A, and Nt-hMLKL^R145A/R146A/F148A/M150A were generated using the Site-directed Mutagenesis Kit (EZ004S, Enzynomics, S. Korea). These constructs were subcloned into pBT7-N-His and pET-15b plasmid vectors. E. coli BL21 cells transformed with the cloned expression vectors were cultured in LB medium and supplemented with 100 μg/mL ampicillin until an OD at 600 nm of 0.5–0.6 was reached. The cultures were induced by 1 mM IPTG (367-93-1, Sigma-Aldrich). The cells were lysed and centrifuged. The clear supernatants were subjected to Ni-NTA affinity chromatography (175018169, QIAGEN, Hilden, Germany). Plasmids encoding mMLKL (1–464)–gyrase fusion constructs were kindly provided by Prof. […]
The interactions of Wt-hMLKL, Wt-mMLKL, Nt-mMLKL, Nt, and Ct-hMLKL proteins with Re-APO or Ox-APO were detected through SPR analysis using Biacore™ T200 (Cytiva, Marlborough, MA, USA). […] Sensorgrams were recorded and analyzed in real-time using the control software in the BIAcore T200 system. All data were analyzed using the BIA evaluation software (Cytiva).

[1] = tested on: J774A.1 cells transfected with Wt-mMLKL (1–464)-gyrase; assay: PI uptake after chemically induced mMLKL-gyrase dimerization; type: cell-based, mouse; conditions: 20 μM overnight
Method: PI uptake assays were performed in triplicate to evaluate pore formation on the plasma membrane. THP‑1 cells (2 × 10⁵ cells/well) were seeded in black-walled, clear-bottom 96-well plates and treated with TBZ (TNF, BV6, and z-VAD-FMK) in the presence or absence of candidate compounds for 8 h to induce necroptosis. […] PI (556463, BD Biosciences, San Jose, CA, USA) was added at a final concentration of 1 μg/mL for 10 min before measurement. Fluorescence was recorded using a Varioskan Flash 3001 plate reader (Thermo Fisher Scientific, Waltham, MA, USA).
J774A.1 cells were transfected with plasmids encoding mMLKL (1–464)-gyrase. mMLKL-gyrase expression was induced with 10 ng/mL doxycycline (Dox), followed by 700 nM coumermycin treatment for 4 h to promote dimerization. Then, Ox-APO (20 μM) was added, and the cells were incubated overnight. PI uptake was measured using a microplate reader, and the values were normalized to those of the untreated group. Data represent mean ± SEM (n = 3). **p < 0.01, ***p < 0.001, one-way ANOVA. The expression of mMLKL-gyrase was confirmed by SDS-PAGE of WCLs, followed by immunoblotting with the indicated antibodies. The arrowhead indicates endogenous MLKL, while the tailed arrow denotes the mMLKL–gyrase fusion protein.

T1 sequence (Q8NB16 2-154 F148A): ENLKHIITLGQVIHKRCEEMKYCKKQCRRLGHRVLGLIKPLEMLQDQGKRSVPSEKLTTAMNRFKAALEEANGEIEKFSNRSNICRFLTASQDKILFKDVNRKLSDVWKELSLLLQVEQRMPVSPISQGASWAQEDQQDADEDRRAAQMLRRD

## CN1CCc2cccc3c4c(cc1c23)C=CC(=O)C4=O [Ox-APO]
Nt-hMLKL^F148A
  fold weaker binding of single mutant: ~ 10 fold
[1]
  PI-positive cells after Dox and coumermycin stimulation: markedly reduced
